Source: US20240425524A1, “SPIROTRICYCLE RIPK1 INHIBITORS AND METHODS OF USES THEREOF” (Merck Sharp & Dohme LLC, priority 2021, published 2024)

These compounds were tested against RIPK1 (Homo sapiens (Human), UniProt Q13546) (assay: RIPK1-ADP-Glo Enzymatic Assay). Details: recombinant GST-RIPK1 kinase domain (residues 1-327), 25 nM, ten-point titration, 30 minutes pre-incubation.
RIPK1, sequence (Q13546 1-327): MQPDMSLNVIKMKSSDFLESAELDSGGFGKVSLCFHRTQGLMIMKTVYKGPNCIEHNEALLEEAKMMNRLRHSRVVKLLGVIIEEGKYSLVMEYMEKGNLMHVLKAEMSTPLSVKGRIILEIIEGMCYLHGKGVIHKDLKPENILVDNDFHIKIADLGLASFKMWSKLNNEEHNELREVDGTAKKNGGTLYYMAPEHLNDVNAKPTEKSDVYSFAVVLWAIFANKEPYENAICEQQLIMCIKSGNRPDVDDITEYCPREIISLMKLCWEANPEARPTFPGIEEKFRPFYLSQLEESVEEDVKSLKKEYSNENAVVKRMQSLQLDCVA
Type: biochemical
Method in brief: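 GST-RIPK1 kinase domain (residues 1-327, Sf21-expressed; 25 nM final) was pre-incubated 30 min at ambient temperature with compound (10-point 1:3 series from 100000 nM, 1% DMSO) in HEPES pH 7.3 buffer with 20 mM MgCl2. The reaction was started with 900 μM ATP (addition solution) and 3 μM dephosphorylated MBP and ran 150 min. Read-out was ADP-Glo luminescence, with EC50 from a four-parameter fit.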
`O=C1N2[C@H](c3cc(F)cc(F)c3)CCN2CC12CCN(c1cnc(-c3ccc(Cl)cc3)cn1)CC2` [Example 2.18, (S)-1-(5-(4-chlorophenyl)pyrazin-2-y1)-7′-(3,5-difluorophenyl)dihydro-1′H,3′H,5′H-spiro[piperidine-4,2′-pyrazolo[1,2-a]pyrazol]-1′-one] was tested, and the EC50 was 152 nM. With `N#Cc1cnc(N2CCC3(CC2)CN2CC[C@@H](c4cc(F)cc(F)c4)N2C3=O)cn1` [Example 2.19, (S)-5-(7′-(3,5-difluorophenyl)-1′-oxodihydro-l′H,3′H,5′H-spiro[piperidine-4,2′-pyrazolo[1,2-a]pyrazol]-1-y1)pyrazine-2-carbonitrile] the EC50 was 27 nM. Compound `CSc1cnc(N2CCC3(CC2)CN2CC[C@@H](c4cc(F)cc(F)c4)N2C3=O)cn1` [Example 2.20, (S)-7′-(3,5-difluorophenyl)-1-(5-(methylthio)pyrazin-2-yl)dihydro-l′H,3′H,5′H-spiro[piperidine-4,2′-pyrazolo[1,2-a]pyrazol]-1′-one] has an EC50 of 30 nM. In the case of `O=C1N2[C@H](c3cc(F)cc(F)c3)CCN2CC12CCN(c1ccc(OC(F)F)cn1)CC2` [Example 2.21, (S)-1-(5-(difluoromethoxy)pyridin-2-y1)-7′-(3,5-difluorophenyl)dihydro-1′H,3′H,5′H-spiro[piperidine-4,2′-pyrazolo[1,2-a]pyrazol]-1′-one], the EC50 is reported as 28 nM. Work on `O=C1N2[C@H](c3cc(F)cc(F)c3)CCN2CC12CCN(c1cc(-c3ccco3)ccn1)CC2` [Example 2.22, (S)-7′-(3,5-difluorophenyl)-1-(4-(furan-2-y1)pyridin-2-yl)dihydro-1′H,3′H,5′H-spiro[piperidine-4,2′-pyrazolo[1,2-a]pyrazol]-1′-one] yielded an EC50 of 132 nM. For `Cc1cc(-c2cncs2)nc(N2CCC3(CC2)CN2CC[C@@H](c4cc(F)cc(F)c4)N2C3=O)c1` [Example 2.23, (S)-7′-(3,5-difluorophenyl)-1-(4-methyl-6-(thiazol-5-yl)pyridin-2-yl)dihydro-1′H,3′H,5′H-spiro[piperidine-4,2′-pyrazolo[1,2-a]pyrazol]-1′-one], the EC50 was 48 nM. In the case of `CCCOc1ccnc(N2CCC3(CC2)CN2CC[C@@H](c4cc(F)cc(F)c4)N2C3=O)c1` [Example 2.24, (S)-7′-(3,5-difluorophenyl)-1-(4-propoxypyridin-2-yl)dihydro-l′H,3′H,5′H-spiro[piperidine-4,2′-pyrazolo[1,2-a]pyrazol]-1′-one], the EC50 is reported as 907 nM. Work on `O=C1N2[C@H](c3cc(F)cc(F)c3)CCN2CC12CCN(c1cc(-n3ccnc3)ccn1)CC2` [Example 2.25, (S)-1-(4-(1H-imidazol-1-yl)pyridin-2-y1)-7′-(3,5-difluorophenyl)dihydro-1′H,3′H,5′H-spiro[piperidine-4,2′-pyrazolo[1,2-a]pyrazol]-1′-one] yielded an EC50 of 50 nM. With `Cc1cnn(-c2ccnc(N3CCC4(CC3)CN3CC[C@@H](c5cc(F)cc(F)c5)N3C4=O)c2)c1` [Example 2.26, (S)-7′-(3,5-difluorophenyl)-1-(4-(4-methyl-1H-pyrazol-1-yl)pyridin-2-yl)dihydro-1′H,3′H,5′H-spiro[piperidine-4,2′-pyrazolo[1,2-a]pyrazol]-1′-one] the EC50 was 98 nM. Work on `O=C1N2[C@H](c3cc(F)cc(F)c3)CCN2CC12CCN(c1ncnc3scnc13)CC2` [Example 3.1] yielded an EC50 of 24 nM. `CCn1cnc2c(N3CCC4(CC3)CN3CC[C@@H](c5cc(F)cc(F)c5)N3C4=O)ncnc21` [Example 3.2, (S)-7′-(3,5-difluorophenyl)-1-(9-ethyl-9H-purin-6-yl)dihydro-l′H,3′H,5′H-spiro[piperidine-4,2′-pyrazolo[1,2-a]pyrazol]-1′-one] showed an EC50 of 765 nM. In the case of `O=C1N2[C@H](c3cc(F)cc(F)c3)CCN2CC12CCN(c1ncnc3scnc13)CC2` [Example 3.3, (S)-7′-(3,5-difluorophenyl)-1-(thiazolo[5,4-d]pyrimidin-7-yl)dihydro-1′H,3′H,5′H-spiro[piperidine-4,2′-pyrazolo[1,2-a]pyrazol]-1′-one], the EC50 is reported as 14 nM. With `O=C(c1cnccn1)N1CCC2(CC1)CN1CC[C@@H](c3cc(F)cc(F)c3)N1C2=O` [Example 4.1, (S)-7′-(3,5-difluorophenyl)-1-(pyrazine-2-carbonyl) dihydro-1′H,3′H,5′H-spiro [piperidine-4,2′-pyrazolo[1,2-a]pyrazol]-1′-one] the EC50 was 50 nM. For `O=C(c1ncccn1)N1CCC2(CC1)CN1CC[C@@H](c3cc(F)cc(F)c3)N1C2=O` [Example 4.2, (S)-7′-(3,5-difluorophenyl)-1-(pyrimidine-2-carbonyl)dihydro-1′H,3′H,5′H-spiro[piperidine-4,2′-pyrazolo[1,2-a]pyrazol]-l′-one], the EC50 was 434 nM. For `Cc1ccc(C(=O)N2CCC3(CC2)CN2CC[C@@H](c4cc(F)cc(F)c4)N2C3=O)cc1` [Example 4.3, (S)-7′-(3,5-difluorophenyl)-1-(4-methylbenzoyl)dihydro-1′H,3′H,5′H-spiro[piperidine-4,2′-pyrazolo[1,2-a]pyrazol]-l′-one], the EC50 was 38 nM. `O=C(c1cccnc1)N1CCC2(CC1)CN1CC[C@@H](c3cc(F)cc(F)c3)N1C2=O` [Example 4.4, (S)-7′-(3,5-difluorophenyl)-1-nicotinoyldihydro-1′H,3′H,5′H-spiro[piperidine-4,2′-pyrazolo[1,2-a]pyrazol]-l′-one] was tested, and the EC50 was 209 nM. `O=C(c1ccncc1)N1CCC2(CC1)CN1CC[C@@H](c3cc(F)cc(F)c3)N1C2=O` [Example 4.5, (S)-7′-(3,5-difluorophenyl)-1-isonicotinoyldihydro-1′H,3′H,5′H-spiro[piperidine-4,2′-pyrazolo[1,2-a]pyrazol]-l′-one] was tested, and the EC50 was 414 nM. Work on `Cn1ccc(C(=O)N2CCC3(CC2)CN2CC[C@@H](c4cc(F)cc(F)c4)N2C3=O)n1` [Example 4.6, (S)-7′-(3,5-difluorophenyl)-1-(1-methyl-1H-pyrazole-3-carbonyl)dihydro-1′H,3′H,5′H-spiro[piperidine-4,2′-pyrazolo[1,2-a]pyrazol]-l′-one] yielded an EC50 of 594 nM. For `N#Cc1cc(F)cc(C(=O)N2CCC3(CC2)CN2CC[C@@H](c4cc(F)cc(F)c4)N2C3=O)c1` [Example 4.7, (S)-3-(7′-(3,5-difluorophenyl)-1′-oxodihydro-1′H,3′H,5′H-spiro[piperidine-4,2′-pyrazolo[1,2-a]pyrazole]-1-carbonyl)-5-fluorobenzonitrile], the EC50 was 211 nM. Compound `Cc1c(F)cccc1C(=O)N1CCC2(CC1)CN1CC[C@@H](c3cc(F)cc(F)c3)N1C2=O` [Example 4.8, (S)-7′-(3,5-difluorophenyl)-1-(3-fluoro-2-methylbenzoyl)dihydro-1′H,3′H,5′H-spiro[piperidine-4,2′-pyrazolo[1,2-a]pyrazol]-l′-one] has an EC50 of 158 nM. `O=C(c1c(F)ccc(F)c1F)N1CCC2(CC1)CN1CC[C@@H](c3cc(F)cc(F)c3)N1C2=O` [Example 4.9, (S)-7′-(3,5-difluorophenyl)-1-(2,3,6-trifluorobenzoyl) dihydro-1′H,3′H,5′H-spiro[piperidine-4,2′-pyrazolo[1,2-a]pyrazol]-l′-one] showed an EC50 of 31 nM. With `O=C(c1cc(F)c(F)c(F)c1)N1CCC2(CC1)CN1CC[C@@H](c3cc(F)cc(F)c3)N1C2=O` [Example 4.10, (S)-7′-(3,5-difluorophenyl)-1-(3,4,5-trifluorobenzoyl) dihydro-1′H,3′H,5′H-spiro[piperidine-4,2′-pyrazolo[1,2-a]pyrazol]-l′-one] the EC50 was 67 nM. Compound `O=C(c1cc(F)c(F)cc1F)N1CCC2(CC1)CN1CC[C@@H](c3cc(F)cc(F)c3)N1C2=O` [Example 4.11, (S)-7′-(3,5-difluorophenyl)-1-(2,4,5-trifluorobenzoyl) dihydro-1′H,3′H,5′H-spiro[piperidine-4,2′-pyrazolo[1,2-a]pyrazol]-l′-one] has an EC50 of 19 nM. `O=C(c1cc(F)cc(F)c1F)N1CCC2(CC1)CN1CC[C@@H](c3cc(F)cc(F)c3)N1C2=O` [Example 4.12, (S)-7′-(3,5-difluorophenyl)-1-(2,3,5-trifluorobenzoyl) dihydro-1′H,3′H,5′H-spiro[piperidine-4,2′-pyrazolo[1,2-a]pyrazol]-l′-one] gave an EC50 of 26 nM. `Cc1ccc(F)cc1C(=O)N1CCC2(CC1)CN1CC[C@@H](c3cc(F)cc(F)c3)N1C2=O` [Example 4.13, (S)-7′-(3,5-difluorophenyl)-1-(5-fluoro-2-methylbenzoyl) dihydro-1′H,3′H,5′H-spiro[piperidine-4,2′-pyrazolo[1,2-a]pyrazol]-l′-one] gave an EC50 of 335 nM. `COc1ccc(F)cc1C(=O)N1CCC2(CC1)CN1CC[C@@H](c3cc(F)cc(F)c3)N1C2=O` [Example 4.14, (S)-7′-(3,5-difluorophenyl)-1-(5-fluoro-2-methoxybenzoyl) dihydro-l′H,3′H,5′H-spiro[piperidine-4,2′-pyrazolo[1,2-a]pyrazol]-l′-one] gave an EC50 of 386 nM. In the case of `N#Cc1ccc(C(=O)N2CCC3(CC2)CN2CC[C@@H](c4cc(F)cc(F)c4)N2C3=O)cc1F` [Example 4.15, (S)-4-(7′-(3,5-difluorophenyl)-1′-oxodihydro-1′H,3′H,5′H-spiro[piperidine-4,2′-pyrazolo[1,2-a]pyrazole]-1-carbonyl)-2-fluorobenzonitrile], the EC50 is reported as 858 nM. In the case of `COc1ccc(C(=O)N2CCC3(CC2)CN2CC[C@@H](c4cc(F)cc(F)c4)N2C3=O)cc1F` [Example 4.16, (S)-7′-(3,5-difluorophenyl)-1-(3-fluoro-4-methoxybenzoyl) dihydro-l′H,3′H,5′H-spiro[piperidine-4,2′-pyrazolo[1,2-a]pyrazol]-l′-one], the EC50 is reported as 83 nM. In the case of `O=C(c1cncc(F)c1)N1CCC2(CC1)CN1CC[C@@H](c3cc(F)cc(F)c3)N1C2=O` [Example 4.17, (S)-7′-(3,5-difluorophenyl)-1-(5-fluoronicotinoyl) dihydro-1′H,3′H,5′H-spiro[piperidine-4,2′-pyrazolo[1,2-a]pyrazol]-l′-one], the EC50 is reported as 446 nM. In the case of `Cc1cc(F)cc(C(=O)N2CCC3(CC2)CN2CC[C@@H](c4cc(F)cc(F)c4)N2C3=O)c1` [Example 4.18, (S)-7′-(3,5-difluorophenyl)-1-(3-fluoro-5-methylbenzoyl) dihydro-1′H,3′H,5′H-spiro[piperidine-4,2′-pyrazolo[1,2-a]pyrazol]-l′-one], the EC50 is reported as 18 nM.
